Experiment [1] addresses T1, TBK1 (Homo sapiens, UniProt Q9UHD2).
T1 construct: TBK1 and IKKε were expressed and purified as full length recombinant proteins; made in house
T1 sequence (Q9UHD2 1-729): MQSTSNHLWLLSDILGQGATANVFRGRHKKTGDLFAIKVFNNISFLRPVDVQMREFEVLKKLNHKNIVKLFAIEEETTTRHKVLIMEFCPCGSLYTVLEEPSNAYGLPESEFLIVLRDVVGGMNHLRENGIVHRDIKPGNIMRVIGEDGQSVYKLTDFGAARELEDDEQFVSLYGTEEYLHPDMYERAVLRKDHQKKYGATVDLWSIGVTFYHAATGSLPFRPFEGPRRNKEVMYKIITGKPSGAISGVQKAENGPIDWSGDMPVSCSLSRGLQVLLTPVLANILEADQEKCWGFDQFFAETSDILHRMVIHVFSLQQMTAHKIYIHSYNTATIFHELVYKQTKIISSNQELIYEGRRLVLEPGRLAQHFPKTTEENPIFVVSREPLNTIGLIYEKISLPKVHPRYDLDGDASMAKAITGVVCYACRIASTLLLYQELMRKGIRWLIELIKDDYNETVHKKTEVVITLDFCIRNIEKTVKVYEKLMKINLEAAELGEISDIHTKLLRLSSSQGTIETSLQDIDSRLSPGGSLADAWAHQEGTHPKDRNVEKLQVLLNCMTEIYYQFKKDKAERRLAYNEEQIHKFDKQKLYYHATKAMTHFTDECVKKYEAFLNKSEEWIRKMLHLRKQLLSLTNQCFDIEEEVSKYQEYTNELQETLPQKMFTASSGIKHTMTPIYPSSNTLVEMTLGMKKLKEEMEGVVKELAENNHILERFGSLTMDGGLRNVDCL
Nature of the experiment: TR-FRET enzymatic activity assay, TBK1. Also: full length recombinant TBK1 at 2.5 nM. The class given is biochemical. The method, then:
(§1) Biological Assay for TBK1 and IKKε:
Enzymatic activity of IKKε and TBK1 was measured using a homogeneous time resolved fluorescence resonance energy transfer (TR-FRET) assay that monitors enzyme dependent phosphorylation of a biotinylated serine/threonine peptide substrate. An increase in the amount of phosphorylated peptide results in an increase in TR-FRET signal. TBK1 and IKKε were expressed and purified as full length recombinant proteins. Detection reagents for the assay were purchased from Cisbio. […] After an assay reaction time of 240 minutes at 25° C., reactions were terminated with EDTA.
Amount of phosphorylated peptide was determined by the addition of 125 nM streptavidin XL665 and europium cryptate labeled anti-phospho monoclonal antibody and the resulting TR-FRET signal was recorded on an Envision plate reader (Ex: 340 nm; Em: 615/665 nm; 100 μs delay and 200 μs read window). Data was normalized based on a positive (1 μM Staurosporine) and negative (DMSO) controls and IC50 values calculated from the fit of the dose-response curves to a four-parameter equation. All IC50 values represent geometric mean values of a minimum of four determinations. These assays generally produced results within 3-fold of the reported mean.
On the technique in general: Time-resolved FRET reads energy transfer from a long-lived donor to a nearby acceptor.

For experiment [2], the target named is T2, IKKε (Homo sapiens, UniProt Q14164).
T2 construct: TBK1 and IKKε were expressed and purified as full length recombinant proteins; made in house
T2 sequence (Q14164 1-716): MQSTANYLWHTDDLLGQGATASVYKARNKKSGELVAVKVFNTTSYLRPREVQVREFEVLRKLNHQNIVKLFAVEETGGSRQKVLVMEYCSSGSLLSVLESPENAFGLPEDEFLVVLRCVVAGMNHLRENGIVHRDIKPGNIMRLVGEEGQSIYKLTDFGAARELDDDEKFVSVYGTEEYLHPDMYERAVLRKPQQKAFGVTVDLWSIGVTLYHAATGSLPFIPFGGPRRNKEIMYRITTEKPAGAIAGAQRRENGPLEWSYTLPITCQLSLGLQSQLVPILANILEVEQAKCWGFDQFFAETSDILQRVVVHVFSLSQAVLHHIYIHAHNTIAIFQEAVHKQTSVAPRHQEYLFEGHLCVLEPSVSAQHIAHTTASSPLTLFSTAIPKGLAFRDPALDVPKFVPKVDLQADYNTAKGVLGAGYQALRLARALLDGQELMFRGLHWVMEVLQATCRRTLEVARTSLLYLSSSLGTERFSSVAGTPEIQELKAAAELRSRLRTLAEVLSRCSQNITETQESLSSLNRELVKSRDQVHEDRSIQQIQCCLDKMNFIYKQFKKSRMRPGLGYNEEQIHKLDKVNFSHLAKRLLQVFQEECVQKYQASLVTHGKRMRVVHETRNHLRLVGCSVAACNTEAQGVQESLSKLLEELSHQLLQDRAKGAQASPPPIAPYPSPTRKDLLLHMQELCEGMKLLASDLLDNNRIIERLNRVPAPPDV
Nature of the experiment: TR-FRET enzymatic activity assay, IKKε. Also: full length recombinant IKKε at 0.3 nM. The conditions noted are these: read-out: IKKϵ IC50. It counts as biochemical. Here is the method: as §1
Enzymatic activity of IKKε and TBK1 was measured using a homogeneous time resolved fluorescence resonance energy transfer (TR-FRET) assay that monitors enzyme dependent phosphorylation of a biotinylated serine/threonine peptide substrate. […] TBK1 and IKKε were expressed and purified as full length recombinant proteins. Detection reagents for the assay were purchased from Cisbio. […] After an assay reaction time of 240 minutes at 25° C., reactions were terminated with EDTA.
Amount of phosphorylated peptide was determined by the addition of 125 nM streptavidin XL665 and europium cryptate labeled anti-phospho monoclonal antibody and the resulting TR-FRET signal was recorded on an Envision plate reader (Ex: 340 nm; Em: 615/665 nm; 100 μs delay and 200 μs read window). Data was normalized based on a positive (1 μM Staurosporine) and negative (DMSO) controls and IC50 values calculated from the fit of the dose-response curves to a four-parameter equation. All IC50 values represent geometric mean values of a minimum of four determinations.

The term IC50 denotes the concentration that gives 50% inhibition. For `N#Cc1cc(-c2ccnc(NC(=O)[C@@H]3C[C@H]3c3cccnc3)c2)ccc1O[C@H]1CCN(C(=O)[C@@H](O)CO)CC1(F)F` [Example 133, (1,2-Trans)-N-(4-(3-cyano-4-(((S)-1-((S)-2,3-dihydroxypropanoyl)-3,3-difluoropiperidin-4-yl)oxy)phenyl)pyridin-2-yl)-2-(pyridin-3-yl)cyclopropane-1-carboxamide], the IC50 in experiment [1] was 6.4 nM; in experiment [2], 9.9 nM.

`Cc1cc([C@@H]2C[C@H]2C(=O)Nc2cc(-c3ccc(OC4CCOCC4)c(C#N)c3)ccn2)on1` (relative stereo) [Example 47, (1,2-trans)-N-(4-(3-cyano-4-((tetrahydro-2H-pyran-4-yl)oxy)phenyl)pyridin-2-yl)-2-(3-methylisoxazol-5-yl)cyclopropane-1-carboxamide]: the figures for the IC50 in experiment [1] and in experiment [2] were 29.4 nM and 269 nM, respectively.

Regarding `Cc1ncc(C(=O)N2CC[C@H](Oc3ccc(-c4cc(NC(=O)C5CC5)ncn4)cc3C#N)[C@H](F)C2)o1` [Example 107, N-(6-(3-cyano-4-(((3R,4S)-3-fluoro-1-(2-methyloxazole-5-carbonyl)piperidin-4-yl)oxy)phenyl)pyrimidin-4-yl)cyclopropanecarboxamide], the half-maximal inhibitory concentration (IC50) in experiment [1] was 48.9 nM; in experiment [2] it was 160 nM.

For the molecule `CCOC(=O)[C@@H]1C[C@H]1C(=O)Nc1cc(-c2ccc(OC3CCOCC3)c(C#N)c2)ccn1` (relative stereo) [Example 50, Ethyl trans-2-((4-(3-cyano-4-((tetrahydro-2H-pyran-4-yl)oxy)phenyl)pyridin-2-yl)carbamoyl)cyclopropane-1-carboxylate], the IC50 in experiment [1] stood at 230 nM; in experiment [2], 535 nM.

In the case of `C[C@@H]1CCCN1c1ccc(-c2ccnc(NC(=O)C3CC3)c2)cc1C#N` [Example 96, (R)—N-(4-(3-cyano-4-(2-methylpyrrolidin-1-yl)phenyl)pyridin-2-yl)cyclopropanecarboxamide], the values for the IC50 in experiment [1] and in experiment [2] were 33 nM and 231 nM, respectively.

As to `N#Cc1cc(-c2ccnc(NC(=O)[C@@H]3C[C@H]3c3cncnc3)c2)ccc1O[C@H]1CCN(C(=O)CO)C[C@H]1F` [Example 149, (1,2-Trans)-N-(4-(3-cyano-4-(((3R,4S)-3-fluoro-1-(2-hydroxyacetyl)piperidin-4-yl)oxy)phenyl)pyridin-2-yl)-2-(pyrimidin-5-yl)cyclopropane-1-carboxamide], the half-maximal inhibitory concentration (IC50) is 15.9 nM in experiment [1] and 99.2 nM in experiment [2].

In the case of `N#Cc1cc(-c2ccnc(NC(=O)C3(O)CC3)c2)ccc1OC1CCOCC1` [Example 36, N-(4-(3-cyano-4-((tetrahydro-2H-pyran-4-yl)oxy)phenyl)pyridin-2-yl)-1-hydroxycyclopropanecarboxamide], the IC50 in experiment [1] and in experiment [2] was > 1000 nM each time.

For the molecule `Cc1noc([C@@H]2C[C@H]2C(=O)Nc2cc(-c3ccc(OC4CCOCC4)c(C#N)c3)ccn2)n1` [Example 108, (1R,2R)—N-(4-(3-cyano-4-((tetrahydro-2H-pyran-4-yl)oxy)phenyl)pyridin-2-yl)-2-(3-methyl-1,2,4-oxadiazol-5-yl)cyclopropane-1-carboxamide], the figures for the IC50 in experiment [1] and in experiment [2] were 186 nM and 322 nM, respectively.

Consider `N#Cc1cc(-c2ccnc(NC(=O)[C@@H]3C[C@H]3c3ccno3)c2)ccc1OC1CCOCC1` (relative stereo) [Example 102, trans-1,2-N-(4-(3-cyano-4-((tetrahydro-2H-pyran-4-yl)oxy)phenyl)pyridin-2-yl)-2-(isoxazol-5-yl)cyclopropane-1-carboxamide], for which the IC50 in experiment [1] was found to be 33.4 nM; in experiment [2] it was 196 nM.

`N#Cc1cc(-c2ccnc(NC(=O)C3CC3)c2)ccc1N1CC[C@@H](O)C1` [Example 17, (R)—N-(4-(3-cyano-4-(3-hydroxypyrrolidin-1-yl)phenyl)pyridin-2-yl)cyclopropanecarboxamide]: the IC50 in experiment [1] was 41.6 nM; in experiment [2], 232 nM.

(Values after US10316049B2, “Tank-binding kinase inhibitor compounds” (Gilead Sciences, Inc., priority 2015, dated 2019).)
